Data published in article PMC7559210, “Verification of P-Glycoprotein Function at the Dermal Barrier in Diffusion Cells and Dynamic “Skin-On-A-Chip” Microfluidic Device” (Pharmaceutics, 2020).

Experiments:
P-glycoprotein [1] = assay type: in vitro ADME
Experimental: (§1) Excised skin samples of both young and aged rats were obtained in the same way. Animals were anaesthetized intraperitoneally with chloral hydrate using a dose of 400 mg/kg. Under anesthesia, the hair of the abdominal skin was shaved off with an electric shaver, then epilated by an epilator cream (ISANA® cream from Rossmann, Burgwedel, Germany). Finally, the skin surface was washed and wiped dry. The abdominal skin was then mechanically sensitized 10 times by tape stripping (10 TS) with leucoplast (BSN Medical GmbH, Hamburg, Germany) to remove the upper layers of dead keratinocytes. The removal of the upper skin layer of the stratum corneum by adhesive tape has become a common practice in recent decades. The determination of the kinetics and penetration depth of different drugs by creating concentration–time profiles is facilitated by the use of the noninvasive method of tape stripping. Tape stripping makes it easier to evaluate the bioequivalence of topical dermatological dosage forms, and also makes it possible to reach detectable concentrations in the dermis and subcutis in preclinical animal models. […] Following these skin preparations, an approximately 1-cm, full-thickness skin incision was made in the caudal part of the abdominal area using scissors. After the first cutting with blunt Metzen scissors, fat, connecting tissue and blood vessels were carefully removed. Then, there were two options for continuing with the preparations, as follows. (1) Fresh skin preparation: Six skin disc-preparations were made from the abdominal, tape-stripped skin (approximately 3 cm in diameter each) for Franz diffusion cell study, or three skin square-preparations (approx. 1.5 cm × 1.5 cm) for skin-on-a-chip experiments. The skin preparations were stored in PPF at room temperature until the initiation of experiments, and were then placed between the donor and acceptor chambers on the cells of the Franz diffusion system or on the chip device. The stratum corneum layer of the skin contacted the test drug formulation, facing the donor chamber, while the dermal/subcutaneous surface contacted the PPF in the acceptor compartments. (2) Frozen skin preparation: Freshly prepared, tape stripped skin preparations were wrapped in an aluminum foil and stored in a deep freezer at −80 °C until the diffusion experiments. On the day of the study, the skin preparations were thawed at room temperature, and then placed on the Franz diffusion cells/chip devices in a similar way as that described for fresh skin preparation.
Hanson 6-Cell Manual Diffusion Test System-type Franz diffusion cells were used in the experiments (Hanson, ABL&E-JASCO Hungary Kft, Budapest, Hungary).
In each unit of the system, there was a heated magnetic stirrer chamber (acceptor compartment), stirred by a helical mixer (Figure 1). A magnet was placed on the bottom of the chamber and the helical mixer was connected to it. The acceptor chambers of the diffusion cells were filled with PPF. […] The diffusion surface was 1.767 cm^2. In the final step, a glass lid was placed onto the donor chambers. In each experiment, six parallel units were used and three cells of them always had the same arrangement with the same conditions. The cells were connected by plastic tubes. In these plastic connectors, distilled water at 32 °C was circulated to mimic the physiological dermal temperature. […] First, 0.5 mL samples were taken every 30 min from the acceptor compartments. After each sample collection, the removed fluid volume was replaced with PPF. Altogether, 60 samples were taken in each experiment, i.e., 10 from each unit. The collected samples were immediately placed on dry ice and stored at −80 °C until bioanalysis.
The dwell time of the transitions was 300 msec. Source conditions were as follows.

P-glycoprotein [2] = settings: fresh young rat skin
Experimental: as §1, with “The stratum corneum layer of the skin contacted the test drug formulation, facing the donor chamber, while the dermal/subcutaneous surface contacted the PPF in the acceptor compartments. (2) Frozen skin preparation: Freshly prepared, tape stripped skin preparations were wrapped in an aluminum foil and stored in a deep freezer at −80 °C until the diffusion experiments. On the day of the study, the skin preparations were thawed at room temperature, and then placed on the Franz diffusion cells/chip devices in a similar way as that described for fresh skin preparation.” left out

[3] = no source given; cited from earlier work
P-glycoprotein [4] = settings: topical PSC-833; erythromycin creams
Experimental: In the current study, a transdermal microdialysis technique was applied to investigate the skin penetration of test compounds through the dermal skin layer in anesthetized rats [24].
First, the epilation and shaving of the abdominal skin surface were performed under slight anesthesia, according to the protocol described in the ex vivo studies section.
The experiments were conducted the day after the skin preparation in order to eliminate the possible effect of the epilator cream and the dermal trauma caused by shaving. Animals were reanesthetized intraperitoneally with chloral hydrate with a dose of 400 mg/kg, and fixed in a supine position. In order to keep their body temperature at 37 °C during the experiment, they were placed on a heating pad. The abdominal skin was wiped dry and mechanically sensitized 10 times by tape-stripping with leucoplast (BSN Medical GmbH, Hamburg, Germany).
Two microdialysis probes (MAB11.8.10, Microbiotech, Stockholm, Sweden) were introduced in parallel at a distance of 2 cm through a guide needle (18G) into the dermal tissue. After the withdrawal of the guide needle, the probe membrane stayed in the dermal tissue, the position of which was previously verified by ultrasonic scanning. Probes were then fixed carefully with tape (Omnisilk, Hartmann, Germany).

P-gp = system: P-gp; design: method as in PMID 18725258; settings: in vivo penetration experiments; cited from earlier work

C/C=C/C[C@@H](C)C(=O)[C@H]1C(=O)N[C@@H](C(C)C)C(=O)N(C)CC(=O)N(C)[C@@H](CC(C)C)C(=O)N[C@@H](C(C)C)C(=O)N(C)[C@@H](CC(C)C)C(=O)N[C@@H](C)C(=O)N[C@H](C)C(=O)N(C)[C@@H](CC(C)C)C(=O)N(C)[C@@H](CC(C)C)C(=O)N(C)[C@@H](C(C)C)C(=O)N1C [PSC-833, valspodar]
effect of PSC-833 pretreatment on erythromycin permeability (AUC) (P-glycoprotein [1]; fresh skins, young and aged, 2% ERY cream, PSC-833 1 mg/mL DMSO, 100 μL, 10 min before, ANOVA, Tukey test): significant effect on permeability | effect of PSC-833 pretreatment on quinidine permeability (AUC) (P-glycoprotein [1]; fresh skins, young and aged, 2% QND cream, ANOVA, Tukey test): statistically relevant effect only on aged subjects | effect of P-gp inhibitor on erythromycin absorption (P-glycoprotein [1]; frozen aged skin, 2% ERY cream): opposite effect

CC[C@H]1OC(=O)[C@H](C)[C@@H](O[C@H]2C[C@@](C)(OC)[C@@H](O)[C@H](C)O2)[C@H](C)[C@@H](O[C@@H]2O[C@H](C)C[C@H](N(C)C)[C@H]2O)[C@](C)(O)C[C@@H](C)C(=O)[C@H](C)[C@@H](O)[C@]1(C)O [erythromycin, Erythromycin]
diffusion through frozen/thawed vs fresh skin (P-glycoprotein [1]; 2% ERY cream): enhanced compared to fresh skins | permeability in aged vs young skin (P-glycoprotein [1]; 2% ERY cream): increased in the aged skin samples | dynamics of absorption in the 270-min observation period (P-glycoprotein [2]; 2% suspension cream): only the absorption phase could be reached, or the plateau was initiated | logP (lipophilicity) [3]: 3.06 | effect of P-gp modulation on drug absorption in vivo (P-glycoprotein [4]): moderate but reproducible reduction in drug absorption

CCC(C)n1ncn(-c2ccc(N3CCN(c4ccc(OCC5COC(Cn6cncn6)(c6ccc(Cl)cc6Cl)O5)cc4)CC3)cc2)c1=O (stereo not shown) [itraconazole]
drug distribution in the skin after topical application with lack of or inhibition of P-gp (P-gp): decreased drug distributions therein

C=C[C@H]1C[N@@]2CC[C@H]1C[C@@H]2[C@@H](O)c1ccnc2ccc(OC)cc12 [quinidine]
permeability of the controls, aged vs young skin (P-glycoprotein [1]; fresh skins, DMSO pretreated, 2% QND cream): independent of age | effect of P-gp inhibition on transdermal delivery (P-glycoprotein [2]; 2% gel, PSC-833 pretreatment): dramatic reduction in transdermal delivery | plateau phase of skin penetration profile (P-glycoprotein [2]; 2% gel, flow 4 μL/min): 90 to 180 min

rhodamine
drug distribution in the skin after topical application with lack of or inhibition of P-gp (P-gp): decreased drug distributions therein
